Tests used:
Format in all cases: cell-based
[1] = test system: T181P mutated DM20 protein expressed in Human 293T cell; assay: In vitro model of leukodystrophy (PMD): overexpression of mutated DM20, protein accumulation by western-blot; details: 5 microM, western-blot 48h
Method: Human open reading frame (ORF) sequences for PLP1, DM20 and Insulin were obtained from Life Technologies (Invitrogen) (IOH41689, IOH5252 and IOH7334 respectively). Construct cloning into the expression plasmid pDEST26 (Invitrogen) was performed by Gateway® LR Clonase™ II Enzyme Mix (Invitrogen). ORF mutations were carried out using the QuikChange Lightning Site-Directed Mutagenesis Kit (Stratagene) (T181P mutation for PLP1 and DM20 ORFs, Akita (C96Y) for Insulin ORF).
One day before transfection, 293T cells were plated at 300,000 cells/mL. 293T cells were transfected with PLP1 and DM20 mutant constructs using Lipofectamine 2000 according to manufacturer's procedure. After transfection, cells were treated with molecules or left untreated.
As a control, cells were transfected with native forms of the proteins. 48h later, cellular lysates were harvested. Protein accumulation was assessed by western-blot.

[2] = test system: mouse embryonic fibroblasts lipofected with poly I:C; assay: In vitro inflammation/infection model: poly I:C induced mouse embryonic fibroblasts; details: 25 μM, 6h, IFN-beta ELISA in culture supernatants
Method: Mouse Embryonic Fibroblasts (MEFs) were lipofected with poly I:C and treated with […] compounds of the invention (25 μM) for 6h. After 6h of culture, elF2alpha-phosphorylation (elF2a-P) and PPP1R15A (GADD34) expression was monitored by western blotting, while type-1 Interferon(IFN)-beta production was quantified in culture supernatants by ELISA. Control (nt) and poly I:C/DMSO are respectively negative and positive controls. Poly I:C (polyinosinic:polycytidylic acid or polyinosinic-polycytidylic acid sodium salt) is an immunostimulant used to simulate viral infections. Poly I:C which is structurally similar to double-stranded RNA, is known to interact with toll-like receptor 3 which is expressed in the intracellular compartments of B-cells and dendritic cells. Guanabenz (25 μM) was used as reference inhibitory compound.
MEFs were cultured in DMEM, 10% FCS (HyClone, Perbio), 100 units/ml penicillin, 100 μg/ml streptomycin, 2 mM glutamine, 1× MEM non-essential amino acids and 50 μM 2-mercaptoethanol. MEFS were treated for the indicated time with 10 μg/ml poly I:C (InvivoGen) in combination with lipofectamine 2000 (Invitrogen).
Cells were lysed in 1% Triton X-100, 50 mM Hepes, 10 mM NaCl, 2.5 mM MgCl2, 2 mM EDTA, 10% glycerol, supplemented with Complete Mini Protease Inhibitor Cocktail Tablets (Roche). Protein quantification was performed using the BCA Protein Assay (Pierce). 25-50 μg of Triton X-100-soluble material was loaded on 2%-12% gradient or 8% SDS-PAGE before immunoblotting and chemi-luminescence detection (SuperSignal West Pico Chemi-luminescent Substrate, Pierce). Rabbit polyclonal antibodies recognizing GADD34 (C-19) were from Santa Cruz Biotechnology and anti-elF2alpha[pS^52] were from Invitrogen.
IFN-beta quantification in culture supernatant was performed using the Mouse Interferon Beta ELISA kit (PBL Interferon Source) according to manufacturer instructions.
Normal response of MEFs to poly I:C is characterized by PPP1R15A expression, increase in elF2alpha-P (variable in time and related to the levels PPP1R15A expression) mediated by PKR activation and type-I IFN production (range 500 to 700 pg/ml). Knock out PPP1R15A MEFs are unable to produce this cytokine in response to poly I:C.
The potency of compounds of the invention to inhibit PPP1R15A was evaluated by measuring the increase of elF2alpha phosphorylation, the decrease of PPP1R15A expression due to its own pharmacological inhibition resulting in general protein synthesis inhibition and type-I IFN production.

Min6 insulinoma cell = assay: Min6 cell line cytoprotection from ER stress (tunicamycin); details: 6 hour exposure to tunicamycin 2.5 μg/mL, different concentrations, viability 72h
Method: Cells were plated in 96 well plates at a density of 0.5.10^6 cells/mL for Min6 cell line, 0,4.10^6 cells/mL for INS1 cell line the day before the treatment. ER stress was elicited by addition of 2.5 μg/mL tunicamycin (Sigma Aldrich) together with phosphatases inhibitors. Media were changed 6h later with fresh media and the cytoprotection was maintained by the addition of phosphatases inhibitors. Cell viability was assessed by measuring the reduction of WST-8 into formazan using Cell Counting Kit-8 (Sigma) according to the supplier's recommendation, 72h after tunicamycin treatment.

SMILES | prevention of accumulation of T181P mutated DM20 protein (FIG. 5) [1] | prevention of type-I IFN production (FIG. 9) [2] | prevention of Min6 insulinoma cell death (FIG. 7) (Min6 insulinoma cell)
CCONC(=N)N/N=C/c1c(F)cccc1Cl [Compound 17, 2-(2-chloro-6-fluorobenzylidene)-N-ethoxyhydrazinecarboximidamide] | able to prevent the accumulation | prevent type-I IFN production | prevent Min6 insulinoma cell death
CCCONC(=N)N/N=C/c1ccccc1Cl [Compound 12, 2-(2-chlorobenzylidene)-N-propoxyhydrazinecarboximidamide] | able to prevent the accumulation | prevent type-I IFN production | prevent Min6 insulinoma cell death
CCONC(=N)N/N=C/c1c(Cl)cccc1Cl [Compound 11, 2-(2,6-dichlorobenzylidene)-N-ethoxyhydrazinecarboximidamide] | – | prevent type-I IFN production | –
CCO/N=C(\N)N/N=C/c1ccccc1Cl [Compound 10, 2-(2-chlorobenzylidene)-N′-ethoxyhydrazinecarboximidamide] | – | prevent type-I IFN production | –
